Reference: patent US11034650B2, “Compounds useful for treating a Mannheimia haemolytica or Histophilus somni infection” (Intervet Inc., priority 2016, dated 2021)
Converted amounts (≈) assume the structure as drawn.

Experiments:
Format in all cases: cell-based
[1] = system: Pasteurella multocida PM 10775 (080130003051, BRD field isolate); experiment: MIC, broth-microdilution (CLSI VET01-A4), strain PM 10775; conditions: Pasteurella multocida strain PM 10775, broth-microdilution; unit assumed
Method in brief: (§1)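 Two-fold serial dilutions of each compound were prepared, bacteria were grown in them, and plates were then inspected visually. No turbidity at the lowest concentration defined the MIC.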

[2] = system: Mannheimia haemolytica MH 6374 (ATCC 33396, reference strain); experiment: MIC, broth-microdilution (CLSI VET01-A4), strain MH 6374; conditions: Mannheimia haemolytica strain MH 6374, broth-microdilution; unit assumed
Method in brief: as §1

[3] = system: Pasteurella multocida PM 6391 (ATCC 43137, reference strain); experiment: MIC, broth-microdilution (CLSI VET01-A4), strain PM 6391; conditions: Pasteurella multocida strain PM 6391, broth-microdilution; unit assumed
Method in brief: as §1

[4] = system: Pasteurella multocida PM 12080 (IV102277-0093, BRD field isolate); experiment: MIC, broth-microdilution (CLSI VET01-A4), strain PM 12080; conditions: Pasteurella multocida strain PM 12080, broth-microdilution; unit assumed
Method in brief: as §1

[5] = system: Mannheimia haemolytica MH 6357 (M7/2, reference strain, cattle infection strain); experiment: MIC, broth-microdilution (CLSI VET01-A4), strain MH 6357; conditions: Mannheimia haemolytica strain MH 6357, broth-microdilution; unit assumed
Method in brief: as §1

[6] = system: Mannheimia haemolytica MH 10720 (154, BRD field isolate); experiment: MIC, broth-microdilution (CLSI VET01-A4), strain MH 10720; conditions: Mannheimia haemolytica strain MH 10720, broth-microdilution; unit assumed
Method in brief: as §1

[7] = system: Pasteurella multocida PM 6267 (P 2225 (L386), reference strain, mouse infection strain); experiment: MIC, broth-microdilution (CLSI VET01-A4), strain PM 6267; conditions: Pasteurella multocida strain PM 6267, broth-microdilution; unit assumed
Method in brief: as §1

[8] = system: Mannheimia haemolytica MH 13065 (XB0446-6003.9, BRD field isolate); experiment: MIC, broth-microdilution (CLSI VET01-A4), strain MH 13065; conditions: Mannheimia haemolytica strain MH 13065, broth-microdilution; unit assumed
Method in brief: as §1

[9] = system: Mannheimia haemolytica MH 12587 (1071, BRD field isolate, macrolide-resistance: erm+, E+); experiment: MIC, broth-microdilution (CLSI VET01-A4), strain MH 12587; conditions: Mannheimia haemolytica strain MH 12587, broth-microdilution; unit assumed
Method in brief: as §1

[10] = system: Mannheimia haemolytica MH 13093 (XB0472-6014.1, BRD field isolate); experiment: MIC, broth-microdilution (CLSI VET01-A4), strain MH 13093; conditions: Mannheimia haemolytica strain MH 13093, broth-microdilution; unit assumed
Method in brief: as §1

Structure (SMILES)	MIC PM 10775 [1] [µg/mL]	MIC MH 6374 [2] [µg/mL]	MIC PM 6391 [3] [µg/mL]	MIC PM 12080 [4] [µg/mL]	MIC MH 6357 [5] [µg/mL]	MIC MH 10720 [6] [µg/mL]	MIC PM 6267 [7] [µg/mL]	MIC MH 13065 [8] [µg/mL]	MIC MH 12587 [9] [µg/mL]	MIC MH 13093 [10] [µg/mL]
CC[C@H](C)[C@H](NC(=O)c1ccc(C#Cc2ccc(CNC(C)C)cc2)cc1)C(=O)NO [Compound 141]	0.2 (≈ 0.474 µM)	12.5 (≈ 29.7 µM)	3.1 (≈ 7.35 µM)	3.1 (≈ 7.35 µM)	6.3 (≈ 14.9 µM)	1.6 (≈ 3.8 µM)	1.6 (≈ 3.8 µM)	6.3 (≈ 14.9 µM)	12.5 (≈ 29.7 µM)	12.5 (≈ 29.7 µM)
COCCN(C)Cc1ccc(C#Cc2ccc(C(=O)N[C@@H](CO)C(=O)NO)cc2)cc1 [Compound 154]	≤ 0.1	12.5 (≈ 29.4 µM)	1.6 (≈ 3.76 µM)	0.8 (≈ 1.88 µM)	3.1 (≈ 7.29 µM)	1.6 (≈ 3.76 µM)	0.2 (≈ 0.47 µM)	6.3 (≈ 14.8 µM)	12.5 (≈ 29.4 µM)	6.3 (≈ 14.8 µM)
CC(=O)[C@H](NC(=O)c1ccc(C#Cc2ccc(CN3CCOCC3)cc2)cc1)C(=O)NO [Compound 399]	0.8 (≈ 1.84 µM)	6.3 (≈ 14.5 µM)	≤ 0.1	0.4 (≈ 0.919 µM)	3.1 (≈ 7.12 µM)	1.6 (≈ 3.67 µM)	25 (≈ 57.4 µM)	6.3 (≈ 14.5 µM)	1.6 (≈ 3.67 µM)	6.3 (≈ 14.5 µM)
CC[C@H](C)[C@H](NC(=O)c1ccc(C#Cc2ccc(CNCc3cccnc3)cc2)cc1)C(=O)NO [Compound 179]	≤ 0.1	0.8 (≈ 1.7 µM)	1.6 (≈ 3.4 µM)	0.4 (≈ 0.85 µM)	0.4 (≈ 0.85 µM)	≤ 0.1	0.2 (≈ 0.425 µM)	0.8 (≈ 1.7 µM)	1.6 (≈ 3.4 µM)	0.8 (≈ 1.7 µM)
C=CCNCc1ccc(C#Cc2ccc(C(=O)N[C@H](C(=O)NO)C(C)(C)O)cc2)cn1 [Compound 361]	≤ 0.1	0.8 (≈ 1.89 µM)	0.4 (≈ 0.947 µM)	0.2 (≈ 0.473 µM)	3.1 (≈ 7.34 µM)	0.4 (≈ 0.947 µM)	0.4 (≈ 0.947 µM)	1.6 (≈ 3.79 µM)	3.1 (≈ 7.34 µM)	3.1 (≈ 7.34 µM)
CC(C)(O)[C@H](NC(=O)c1ccc(C#Cc2ccc(CN3CCOCC3)s2)cc1)C(=O)NO [Compound 293]	≤ 0.1	0.8 (≈ 1.75 µM)	0.2 (≈ 0.437 µM)	≤ 0.1	0.4 (≈ 0.874 µM)	≤ 0.1	1.6 (≈ 3.5 µM)	0.4 (≈ 0.874 µM)	0.8 (≈ 1.75 µM)	0.8 (≈ 1.75 µM)
Cc1cnc(CNCc2ccc(C#Cc3ccc(C(=O)N[C@H](C(=O)NO)C(C)(C)O)cc3)cn2)o1 [Compound 334]	≤ 0.1	0.4 (≈ 0.838 µM)	0.4 (≈ 0.838 µM)	0.2 (≈ 0.419 µM)	0.4 (≈ 0.838 µM)	≤ 0.1	0.4 (≈ 0.838 µM)	0.8 (≈ 1.68 µM)	1.6 (≈ 3.35 µM)	1.6 (≈ 3.35 µM)
CON=C(C)[C@H](NC(=O)c1ccc(C#Cc2ccc(CNCC3CCCO3)cc2)cc1)C(=O)NO (stereo partly shown) [Compound 394]	0.8 (≈ 1.67 µM)	6.3 (≈ 13.2 µM)	0.2 (≈ 0.418 µM)	0.4 (≈ 0.836 µM)	3.1 (≈ 6.48 µM)	1.6 (≈ 3.34 µM)	6.3 (≈ 13.2 µM)	3.1 (≈ 6.48 µM)	0.8 (≈ 1.67 µM)	3.1 (≈ 6.48 µM)
COc1ccc(CNCc2ccc(C#Cc3ccc(C(=O)N[C@H](C(=O)NO)C(C)(C)O)cc3)cc2)cc1 [Compound 224]	≤ 0.1	0.8 (≈ 1.59 µM)	0.4 (≈ 0.797 µM)	≤ 0.1	0.8 (≈ 1.59 µM)	≤ 0.1	≤ 0.1	0.8 (≈ 1.59 µM)	1.6 (≈ 3.19 µM)	0.8 (≈ 1.59 µM)
CC(C)(O)[C@H](NC(=O)c1ccc(C#Cc2ccc(CNCc3ncccn3)s2)cc1)C(=O)NO [Compound 360]	≤ 0.1	1.6 (≈ 3.34 µM)	1.6 (≈ 3.34 µM)	0.4 (≈ 0.834 µM)	0.8 (≈ 1.67 µM)	0.8 (≈ 1.67 µM)	0.4 (≈ 0.834 µM)	1.6 (≈ 3.34 µM)	6.3 (≈ 13.1 µM)	6.3 (≈ 13.1 µM)
